Laboratory results: US6750348B1, “Chemokine receptor binding heterocyclic compounds” (AnorMED, Inc., priority 1999, dated 2004)

How the values were obtained:
Assay type in all cases: cell-based
[1] = tested on: SDF-1α induced Ca flux in SUP-T1 cells; assay: Inhibition of SDF-1α induced Ca flux in SUP-T1 cells (FLIPR); conditions: Homo sapiens, at 20 μg/mL, read-out: inhibited SDF-1α induced Ca flux
Protocol: (§1) Loading dye: Fluo-3, AM (Molecular Probes F-1241) is dissolved in anhydrous DMSO and stored frozen in aliquots. To increase the solubility of the dye in the loading medium, 10% (w/v) pluronic acid (Molecular Probes F-127) is added to the Fluo-3 stock solution immediately before use.
(§2) HBSS+20 mM Hepes buffer+0.2% BSA, pH 7.4. HBSS 10× [(w/o phenol red and sodium bicarbonate (Gibco 14 065-049)]; Hepes buffer 1M (Gibco 15 630-056), BSA (Sigma A3675). The flux buffer is vacuum-filtered and stored refrigerated for a maximum of 5 days. Before use in the experiment, the buffer is warmed at 37° C. in a waterbath.
(§3) The test compounds were diluted in flux buffer and added to 4 wells of a black microplate (4 parallel measurements per compound).
(§4) The chemokines are diluted in flux buffer to concentrations that are 4-fold higher than the desired concentrations required for stimulation of the cells (i.e. 2.5 nM for SDF-1α and 0.6 nM for RANTES). The chemokines were added to untreated 96-well Sero well compound plates (International Medical, Sterilin code 611F96). In the negative control well's (baseline monitoring), flux buffer is added instead of chemokine. As a positive control to check for dye loading efficiency, 20 μM digitonin (final concentration) was also included. The agonist plate was incubated in the FLIPR (37° C.) for 15-30 min.
SUP-T1 cells were centrifuged at room temperature (RT) and re-suspended in loading medium (RPMI-1640 containing 2% FBS and 4 μM Fluo-3, AM). The cells were incubate at room temperature for 45 min. then washed twice in flux buffer then incubated in flux buffer at room temperature for 10 min. The cells were centrifuged and re-suspended in flux buffer at a density of 3×10^6 cells per mL. […] The microplate is then gently centrifuged at room temperature. Homogeneous spreading of the cells on the bottom of the microplate wells was then confirmed with a microscope and the microplate was incubated in the FLIPR (37° C.) for 10 min. prior to testing.
(§5) The FLIPR settings (camera exposure time and laser power) are adjusted to obtain initial fluorescence values between 8,000 and 10,000 units. After monitoring a 20 second-baseline, the agonist (chemokine) (50 μL) is added by automatic pipettor with black pipette tips. Fluorescence is measured simultaneously in all wells of the microplate every 2 seconds (first 2 min) and thereafter every 6 seconds (additional 2 min). The average ca-flux measured in each set of 4 identical wells (one test compound) was calculated by the FLIPR software.
The compounds of the current invention were tested for inhibition of SDF-1α induced Ca flux in SUP-T1 cells using the method described above.

HIV-1 NL4.3 or IIIB = assay: Inhibition of HIV-1 (NL4.3 or IIIB) replication in MT-4 cells (MTT); conditions: Human immunodeficiency virus 1, IIIB, MT4, read-out: EC50, inhibition of HIV-1 NL4.3 or IIIB replication
Procedure, shortened: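 CXCR4-tropic virus infected MT-4 cells at MOI 0.01 (100× CCID50) across a range of compound concentrations, with cytotoxicity run in parallel. Viable cells counted by MTT after 5 days. EC50 is the concentration protecting 50% of infected cells from viral cytopathicity.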

HIV-1 BaL (CCR5 using) = assay: Inhibition of HIV-1 (BaL) replication in PHA-stimulated PBMC's (MTT); conditions: Human immunodeficiency virus 1, BAL, MTT assay
Protocol: Compounds were tested for their ability to inhibit HIV-1 replication in MT-4 cells or PBMC's (peripheral blood mononucleocytes) using published procedures (for example, see: Labrosse et al. J. Virol. 1998, 6381-6388; Simmons et al. J. Virol. 1998, 8453-8457; Donzella et al. Nature Medicine 1998, 72-77; Schols et al. J. Exp. Med. 1997, 1383-1388; De Clercq et al. Antiviral Res. 1997, 147-156; and Bridger et al. U.S. patent application Ser. No. 09/111,895). In addition to the above references, experimental methods for performing anti-viral assays can also be found in: Bridger et al. J. Med. Chem. 1995, 38, 366-378; Bridger et al. J. Med. Chem. 1996, 39, 109-119; Bridger et al. U.S. Pat. No. 5,698,546; Bridger et al. U.S. Pat. No. 5,583,131; Bridger et al. U.S. Pat. No. 5,817,807; De Clercq et al. Antimicrob. Agents and Chemother. 1994, 38, 668-674.
The HIV-1 strain BaL is M-tropic (macrophage tropic) strain that exclusively uses CCR5 as a co-receptor for entry into cells. PBMC's (from healthy donors) express all chemokine receptors including CXCR4 and CCR5.

[2] = tested on: RANTES induced Ca flux in U87.CCR5 cells; assay: Inhibition of RANTES induced Ca flux in U87.CCR5 cells (FLIPR); conditions: U-87-CCR5, at 20 μg/mL, read-out: inhibited RANTES induced Ca flux
Protocol: as §1, §2, §3, §4, §5
U87.CCR5 cells were seeded into the black microplates (Costar 3603) on the day before the experiment. The culture medium was removed from the cells and 100 μL of loading medium (DMEM+10% FBS+4 μM Fluo-3, AM) was added to each well and the plate was incubate at 37° C. for 45 min. The loading medium was then removed an the cells were washed twice with flux buffer using the CELL WASH microplate washer (Labsystems) followed by incubation in flux buffer for 10 min. at room temperature (the washing procedure was repeated twice). Finally, the wash buffer was removed from the microplate wells and 150 μL of the test compound, diluted in flux buffer to the desired concentration. The microplate was then incubated in the FLIPR drawer for 10 min. prior to testing. Measurements were performed as described above.
The compounds of the current invention were tested for inhibition of RANTES induced Ca flux in U87.CCR5 cells.

EC50 (HIV-1 NL4.3 or IIIB) [µg/mL] | EC50 (HIV-1 BaL (CCR5 using)) [µg/mL] | SMILES | inhibition at 20 µg/mL [1] [%] | inhibition at 20 µg/mL [2] [%]
< 20 | < 20 | c1ccc(-c2ccc3c(n2)C(N(Cc2ccc(CNCc4ccccn4)cc2)Cc2ccccn2)CCC3)cc1 (stereo not shown) [Example 12, N,N′-bis(2-pyridinylmethyl)-N′-(2-phenyl-5,6,7,8-tetrahydro-8-quinolinyl)-1,4-benzenedimethanamine] | > 20 | –
< 20 | < 20 | c1ccc(CNCc2ccc(CNC3CCCc4ncccc43)cc2)nc1 (stereo not shown) [Example 13, N-(2-pyridinylmethyl)-N′-(5,6,7,8-tetrahydro-5-quinolinyl)-1,4-benzenedimethanamine] | – | –
< 20 | < 20 | c1ccc(CNCc2ccc(CN(Cc3ncc[nH]3)C3CCCc4ncccc43)cc2)nc1 (stereo not shown) [Example 14, N-(2-pyridinylmethyl)-N′-(1H-imidazol-2-ylmethyl)-N′-(5,6,7,8-tetrahydro-5-quinolinyl)-1,4-benzenedimethanamine] | – | –
< 20 | < 20 | c1ccc(CNCc2ccc(CN(Cc3c[nH]cn3)C3CCCc4cccnc43)cc2)nc1 (stereo not shown) [Example 17, N-(2-pyridinylmethyl)-N′-(1H-imidazol-4-ylmethyl)-N′-(5,6,7,8-tetrahydro-8-quinolinyl)-1,4-benzenedimethanamine] | > 20 | –
– | – | c1ccc(CNCc2ccc(CN(CCCNCc3ccc4ccccc4c3)C3CCCc4cccnc43)cc2)nc1 (stereo not shown) [Example 22, N-(2-pyridinylmethyl)-N′-[3-((2-naphthalenylmethyl)amino)propyl]-N′-(5,6,7,8-tetrahydro-8-quinolinyl)-1,4-benzenedimethanamine] | > 20 | > 20
< 20 | < 20 | c1ccc(CNCc2ccc(CN(C3CCNC3)C3CCCc4cccnc43)cc2)nc1 (stereo not shown) [Example 32, N-(2-pyridinylmethyl)-N′-3-pyrrolidinyl-N′-(5,6,7,8-tetrahydro-8-quinolinyl)-1,4-benzenedimethanamine] | – | –
< 20 | < 20 | c1ccc(CNCc2ccc(CN(C3CCNCC3)C3CCCc4cccnc43)cc2)nc1 (stereo not shown) [Example 33, N-(2-pyridinylmethyl)-N′-4-piperidinyl-N′-(5,6,7,8-tetrahydro-8-quinolinyl)-1,4-benzenedimethanamine] | – | –
< 20 | < 20 | c1ccc(NCCN(Cc2ccc(CNCc3ccccn3)cc2)C2CCCc3cccnc32)cc1 (stereo not shown) [Example 34, N-(2-pyridinylmethyl)-N′-[2-[(phenyl)amino]ethyl]-N′-(5,6,7,8-tetrahydro-8-quinolinyl)-1,4-benzenedimethanamine] | – | –
< 20 | < 20 | COc1ccc2c(c1)CCC(NCc1ccc(CNCc3ccccn3)cc1)C2 (stereo not shown) [Example 36, N-(2-pyridinylmethyl)-N′-(6-methoxy-1,2,3,4-tetrahydro-2-naphthalenyl)-1,4-benzenedimethanamine] | – | –
< 20 | < 20 | Oc1cccc2c1CC(N(Cc1ccc(CNCc3ccccn3)cc1)Cc1ncc[nH]1)CC2 (stereo not shown) [Example 42, N-(2-pyridinylmethyl)-N′-(1H-imidazol-2-ylmethyl)-N′-(8-hydroxy-1,2,3,4-tetrahydro-2-naphthalenyl)-1,4-benzenedimethanamine] | – | –
< 20 | – | Fc1cccc2c1CC(N(Cc1ccc(CNCc3ccccn3)cc1)Cc1ncc[nH]1)CC2 (stereo not shown) [Example 44, N-(2-pyridinylmethyl)-N′-(1H-imidazol-2-ylmethyl)-N′-(8-Fluoro-1,2,3,4-tetrahydro-2-naphthalenyl)-1,4-benzenedimethanamine] | – | > 20
< 20 | – | c1ccc(CNCc2ccc(CN(CCNCc3ccc4ccccc4c3)C3CCCc4cccnc43)cc2)nc1 (stereo not shown) [Example 47, N-(2-pyridinylmethyl)-N′-[2-[(2-naphthalenylmethyl)amino]ethyl]-N′-(5,6,7,8-tetrahydro-8-quinolinyl)-1,4-benzenedimethanamine] | > 20 | > 20
< 20 | – | c1ccc(CNCCN(Cc2ccc(CNCc3ccccn3)cc2)C2CCCc3cccnc32)nc1 (stereo not shown) [Example 49, N-(2-pyridinylmethyl)-N′-[2-[(2-pyridinylmethyl)amino]ethyl]-N′-(5,6,7,8-tetrahydro-8-quinolinyl)-1,4-benzenedimethanamine] | > 20 | > 20
< 20 | – | c1ccc(CNCc2ccc(CN(CCNCc3ccco3)C3CCCc4cccnc43)cc2)nc1 (stereo not shown) [Example 50, N-(2-pyridinylmethyl)-N′-[2-[(2-furanylmethyl)amino]ethyl]-N′-(5,6,7,8-tetrahydro-8-quinolinyl)-1,4-benzenedimethanamine] | > 20 | > 20
< 20 | – | c1ccc(CNCc2ccc(CN(c3nc4ccccc4o3)C3CCCc4cccnc43)cc2)nc1 (stereo not shown) [Example 67, N-(2-pyridinylmethyl)-N′-(2-benzoxazolyl)-N′-(5,6,7,8-tetrahydro-8-quinolinyl)-1,4-benzenedimethanamine] | – | > 20
– | – | C[C@H](N)C(=O)N(Cc1ccc(CNCc2ccccn2)cc1)C1CCCc2cccnc21 (stereo partly shown) [Example 73, N-[[4-[[(2-pyridinylmethyl)amino]methyl]phenyl]methyl]-N-(5,6,7,8-tetrahydro-8-quinolinyl)-(L)-alaninamide] | > 20 | > 20
– | – | O=C([C@@H]1CCCN1)N(Cc1ccc(CNCc2ccccn2)cc1)C1CCCc2cccnc21 (stereo partly shown) [Example 76, N-[[4-[[(2-pyridinylmethyl)amino]methyl]phenyl]methyl]-N-(5,6,7,8-tetrahydro-8-quinolinyl)-(L)-prolinamide] | > 20 | > 20
– | – | NCCCC[C@H](N)C(=O)N(Cc1ccc(CNCc2ccccn2)cc1)C1CCCc2cccnc21 (stereo partly shown) [Example 77, N-[[4-[[(2-pyridinylmethyl)amino]methyl]phenyl]methyl]-N-(5,6,7,8-tetrahydro-8-quinolinyl)-(L)-lysinamide] | > 20 | > 20
< 20 | < 20 | COc1ccc(CCN(Cc2ccc(CNC3CCCc4cccnc43)cc2)Cc2ccccn2)cc1 (stereo not shown) [Example 91, N-(2-pyridinylmethyl)-N-[2-(4-methoxyphenyl)ethyl]-N′-(5,6,7,8-tetrahydro-8-quinolinyl)-1,4-benzenedimethanamine] | – | –
